Molecules are shown by their SMILES.

Chain of human NAMPT (P43490 whole entry): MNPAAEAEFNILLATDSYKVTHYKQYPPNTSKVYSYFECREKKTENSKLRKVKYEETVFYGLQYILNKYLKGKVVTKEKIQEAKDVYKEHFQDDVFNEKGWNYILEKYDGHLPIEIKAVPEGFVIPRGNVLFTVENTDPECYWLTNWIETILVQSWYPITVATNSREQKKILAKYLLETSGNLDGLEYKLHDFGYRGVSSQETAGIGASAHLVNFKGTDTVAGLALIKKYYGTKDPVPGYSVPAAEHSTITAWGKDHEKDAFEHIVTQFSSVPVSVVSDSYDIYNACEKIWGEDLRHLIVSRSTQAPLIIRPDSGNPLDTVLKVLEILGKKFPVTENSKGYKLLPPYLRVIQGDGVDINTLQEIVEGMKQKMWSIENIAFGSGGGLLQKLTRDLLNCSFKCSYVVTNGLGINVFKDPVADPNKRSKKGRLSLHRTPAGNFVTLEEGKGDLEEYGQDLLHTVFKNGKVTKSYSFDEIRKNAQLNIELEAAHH

The assay deals with human NAMPT (Homo sapiens (Human), UniProt P43490). The experiment in a line: NMN fluorescence biochemical assay (human recombinant NAMPT enzyme assay). In short, it runs like this:
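Activation of recombinant human NAMPT (6 nM) was tested with 2.5 mM ATP, 20 μM PRPP and 150 μM nicotinamide in 50 mM HEPES pH 7.2 for 60 min at ambient temperature. NMN was derivatized with acetophenone/KOH/formic acid and read by fluorescence (355/460 nm) after 40 min.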
What is called EC50 is the concentration needed to bring the measured effect to its halfway point. Consider `O=C(Nc1ccc(CNC(=O)N2CCCCC2)cc1)OCc1ccc(Cl)cc1` [Compound 286, (4-chlorophenyl)methyl N-{4-[(piperidine-1-carbonylamino)methyl]phenyl}carbamate], for which the “AC1.4 Human” value stood at 3.79 µM and the concentration for a half-maximal effect (EC50) stood at 14.2 µM.
Turning to `O=C(Nc1ccc(CC(=O)N2CCCC[C@@H]2CO)cc1)OCc1ccc(Cl)cc1` [Compound 287, (4-chlorophenyl)methyl N-(4-{2-[(2R)-2-(hydroxymethyl)piperidin-1-yl]-2-oxoethyl}phenyl)carbamate], the “AC1.4 Human” value was determined as 3.81 µM and the 50% effective concentration (EC50) amounted to 20.6 µM.
For `CC(C)(C)OC(=O)N1CC(OCc2ccc(NC(=O)OCc3ccc(Cl)cc3)cc2)C1` [Compound 288, tert-butyl 3-{[4-({[(4-chlorophenyl)methoxy]carbonyl}amino)phenyl]methoxy}azetidine-1-carboxylate], in that order: 3.88 µM and 3.45 µM.
For `CCc1cc(C(=O)N(C)Cc2ccc(NC(=O)OCc3ccc(Cl)cc3)cc2)n(C)n1` [Compound 289, (4-chlorophenyl)methyl N-(4-{[1-(5-ethyl-2-methylpyrazol-3-yl)-N-methylformamido]methyl}phenyl)carbamate], in that order: 3.95 µM and 50.3 µM.
With `C[C@H](NC(=O)c1ocnc1C1CC1)c1ccc(NC(=O)OCc2ccc(Cl)cc2)cc1` [Compound 290, (4-chlorophenyl)methyl N-{4-[(1S)-1-[(4-cyclopropyl-1,3-oxazol-5-yl)formamido]ethyl]phenyl}carbamate], the “AC1.4 Human” value turned out to be 3.95 µM and the EC50 was 16.9 µM.
For `COc1ccc(COC(=O)Nc2ccc(COC3CCN(C4COC4)CC3)cc2)cc1` [Compound 291, 4-methoxybenzyl (4-(((1-(oxetan-3-yl)piperidin-4-yl)oxy)methyl)phenyl)carbamate], in that order: 3.97 µM and 38.2 µM.
For `Cc1ccc(Cc2ccc(NC(=O)OCc3ccc(Cl)cc3)cc2)cn1` [Compound 292, 4-chlorobenzyl (4-((6-methylpyridin-3-yl)methyl)phenyl)carbamate], in that order: 4.12 µM and 20 µM.
For the compound `COCCN1CCC(Cc2ccc(NC(=O)OCc3cnco3)cc2)CC1` [Compound 293, oxazol-5-ylmethyl (4-((1-(2-methoxyethyl)piperidin-4-yl)methyl)phenyl)carbamate], the “AC1.4 Human” value stood at 4.16 µM and the EC50 was 18.4 µM.
`Cc1cnc(C(=O)NCc2ccc(NC(=O)OCc3ccc(Cl)cc3)cc2)o1` [Compound 294, (4-chlorophenyl)methyl N-(4-{[(5-methyl-1,3-oxazol-2-yl)formamido]methyl}phenyl)carbamate]: the “AC1.4 Human” value was found to be 4.19 µM and the EC50 worked out at 46.5 µM.
Regarding `Cn1ccc(CC(=O)NCc2ccc(NC(=O)OCc3ccc(Cl)cc3)cc2)n1` [Compound 295, (4-chlorophenyl)methyl N-(4-{[2-(1-methylpyrazol-3-yl)acetamido]methyl}phenyl)carbamate], the “AC1.4 Human” value turned out to be 4.57 µM and the EC50 stood at 28 µM.
For `CC(O)(c1ccncc1)c1ccc(NC(=O)OCc2cnco2)cc1` (stereo not drawn) [Compound 296, oxazol-5-ylmethyl (4-(1-hydroxy-1-(pyridin-4-yl)ethyl)phenyl)carbamate], in that order: 4.62 µM and 14.3 µM.
Regarding `O=C(Cc1ncco1)NCc1ccc(NC(=O)OCc2ccc(Cl)cc2)cc1` [Compound 297, (4-chlorophenyl)methyl N-(4-{[2-(1,3-oxazol-2-yl)acetamido]methyl}phenyl)carbamate], the “AC1.4 Human” value was determined as 4.65 µM and the EC50 is 19.8 µM.
As to `CN(Cc1ccc(NC(=O)OCc2ccc(Cl)cc2)cc1)C(=O)c1ccc(C(F)F)nc1` [Compound 298, (4-chlorophenyl)methyl N-[4-({1-[6-(difluoromethyl)pyridin-3-yl]-N-methylformamido}methyl)phenyl]carbamate], the “AC1.4 Human” value turned out to be 4.66 µM and the concentration giving a half-maximal response (EC50) worked out at 20.4 µM.
`O=C(Nc1ccc(Cc2ccncc2)cc1)OCc1cnsc1` [Compound 299, isothiazol-4-ylmethyl (4-(pyridin-4-ylmethyl)phenyl)carbamate]: the “AC1.4 Human” value was 4.67 µM and the concentration giving a half-maximal response (EC50) was 11.6 µM.
On to `O=C(Cc1ccc(NC(=O)OCc2ccc(Cl)cc2)cc1)NCc1cnccn1` [Compound 300, (4-chlorophenyl)methyl N-(4-{[(pyrazin-2-ylmethyl)carbamoyl]methyl}phenyl)carbamate], for which the “AC1.4 Human” value stood at 4.81 µM and the 50% effective concentration (EC50) is 26.4 µM.
In the case of `CC(C)n1nccc1C(=O)NCc1ccc(NC(=O)OCc2ccc(Cl)cc2)cc1` [Compound 301, (4-chlorophenyl)methyl N-(4-{[(2-isopropylpyrazol-3-yl)formamido]methyl}phenyl)carbamate], the “AC1.4 Human” value was 4.81 µM and the 50% effective concentration (EC50) was 26.8 µM.
For the compound `CC(C)Cn1nccc1C(=O)NCc1ccc(NC(=O)OCc2ccc(Cl)cc2)cc1` [Compound 302, (4-chlorophenyl)methyl N-[4-({[2-(2-methylpropyl)pyrazol-3-yl]formamido}methyl)phenyl]carbamate], the “AC1.4 Human” value was 4.86 µM and the EC50 came to 17.2 µM.
In the case of `O=C(Nc1ccc(Cc2cnccn2)cc1)OCc1ccc(Cl)cc1` [Compound 303, 4-chlorobenzyl (4-(pyrazin-2-ylmethyl)phenyl)carbamate], the “AC1.4 Human” value amounted to 4.87 µM and the EC50 is 19.4 µM.
For the compound `CC(C)N1CC(=O)NC[C@@H]1c1ccc(NC(=O)OCc2ccc(Cl)cc2)cc1` [Compound 304, 4-chlorobenzyl (S)-(4-(1-isopropyl-5-oxopiperazin-2-yl)phenyl)carbamate], the “AC1.4 Human” value was 4.93 µM and the EC50 is 23.5 µM.
The corresponding values for `O=C(Nc1ccc(CNC(=O)c2ccc(F)cn2)cc1)OCc1ccc(Cl)cc1` [Compound 305, (4-chlorophenyl)methyl N-(4-{[(5-fluoropyridin-2-yl)formamido]methyl}phenyl)carbamate] are 4.95 µM and 22.9 µM.
In the case of `N#Cc1ccc(COC(=O)Nc2ccc(Cc3ccncc3)cc2)cc1` [Compound 306, 4-cyanobenzyl (4-(pyridin-4-ylmethyl)phenyl)carbamate], the “AC1.4 Human” value worked out at 4.97 µM and the EC50 stood at 13.9 µM.
For `O=C(Nc1ccc(Cc2ccccc2)cc1)OCc1ccc(Cl)cc1` [Compound 307], the “AC1.4 Human” value amounted to 5.02 µM and the concentration giving a half-maximal response (EC50) is 5.55 µM.
Take `O=C(Cc1ccc(NC(=O)OCc2ccc(Cl)cc2)cc1)NC1CCOCC1` [Compound 308, (4-chlorophenyl)methyl N-(4-{[(oxan-4-yl)carbamoyl]methyl}phenyl)carbamate]: the “AC1.4 Human” value stood at 5.08 µM and the EC50 is 8.69 µM.
With `O=C(Nc1ccc(CNC(=O)N2CCC(F)(F)CC2)cc1)OCc1ccc(Cl)cc1` [Compound 309, (4-chlorophenyl)methyl N-{4-[(4,4-difluoropiperidine-1-carbonylamino)methyl]phenyl}carbamate], the “AC1.4 Human” value amounted to 5.19 µM and the concentration giving a half-maximal response (EC50) came to 14.9 µM.

For the origin of these results see patent publication US20240279215A1 (Cytokinetics, Incorporated, priority 2022, published 2024).
